These results are taken from patent US5137711A, “Paramagnetic DTPA and EDTA alkoxyalkylamide complexes as MRI agents” (Mallickrodt Medical, Inc., priority 1989, dated 1992).

The series relates to ICR mice. Put plainly: acute intravenous toxicity in ICR mice. Format: in vivo. Here is the method: The acute intravenous toxicity of the compound of Example II was determined as follows: ICR mice, at 1 to 4 per dose level, received single intravenous injections of the test substance via a lateral tail vein at the rate of approximately 1 ml/minute. The test substances were at concentrations chosen to result in dose volumes of 5 to 75 ml/kg body weight. Dosing began at a volume of 10 ml/kg. Dose adjustments up or down were made to closely bracket the estimated LD50 with 4 animals per group (2 males and 2 females). Observations of the mice were recorded at times 0, 0.5, 1,2,4 and 24 hours and once daily thereafter for up to 7 days post injection. On the 7th day post injection, the mice were euthanized, weighed and necropsied. Abnormal tissues were noted. At this time a decision was made as to whether any histopathology was to be performed and whether or not the tissues should be retained. Necropsies were also performed on mice expiring after 24 hours post-injection, except for dead mice found on the weekends The LD50 values, along with 95% CI were calculated using a modified Behrens-Reed-Meunch method. The results for the complex of Example II are reported below:
Sex and Weight Range of Mice: Males(18.0-20.3 g) Females (19.0-21.7 g)

Consider `COCCNC(=O)CN(CCN(CCN(CC(=O)[O-])CC(=O)NCCOC)CC(=O)[O-])CC(=O)[O-].[Gd+3]` [Example II, {N,N"-Bis[N-(2-methoxyethyl)-carbamoylmethyl]diethylenetriamine-N,N',N"-triaceto} gadolinium (III)], for which, under “7-day post-injection period, i.v.”, the “Body weight of surviving mice” value is recorded as “failed to gain weight”. In addition, for the setting “preliminary tests, mice”, the “i.v. toxicity (overall, in words)” value is recorded as “low order of i.v. toxicity”.
